ChEMBL document CHEMBL5126529, “Drug discovery of histone lysine demethylases (KDMs) inhibitors (progress from 2018 to present)” (Eur J Med Chem, 2022)
Blank lines part the entries; values can stand above or below the compound they belong to.

How the values were obtained:
[1] = molecular target: T1, MAO-A (Homo sapiens, UniProt P21397); experiment: Inhibition of recombinant MAO-A (unknown origin) using luciferin substrate at 10 uM preincubated for 15 mins followed by substrate addition measured after 1 hr by luciferase based assay relative to control; details: probe luciferin substrate, time 75 min
T1 sequence (P21397 whole entry): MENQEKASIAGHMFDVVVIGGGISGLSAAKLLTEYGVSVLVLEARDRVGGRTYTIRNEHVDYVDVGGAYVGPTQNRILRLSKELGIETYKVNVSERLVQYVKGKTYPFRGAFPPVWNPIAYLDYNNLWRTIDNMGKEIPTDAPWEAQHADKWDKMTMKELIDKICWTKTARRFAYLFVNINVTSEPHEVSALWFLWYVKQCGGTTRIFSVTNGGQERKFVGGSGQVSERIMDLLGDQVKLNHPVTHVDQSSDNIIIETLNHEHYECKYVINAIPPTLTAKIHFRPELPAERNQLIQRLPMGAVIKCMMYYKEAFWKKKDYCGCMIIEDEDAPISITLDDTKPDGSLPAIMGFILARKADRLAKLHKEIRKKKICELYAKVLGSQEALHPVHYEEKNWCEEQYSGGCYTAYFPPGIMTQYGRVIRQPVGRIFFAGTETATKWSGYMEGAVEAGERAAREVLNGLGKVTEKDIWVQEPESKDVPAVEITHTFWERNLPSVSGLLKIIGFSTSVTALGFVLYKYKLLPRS

[2] = molecular target: T2, MAO-B (Homo sapiens, UniProt P27338); experiment: Inhibition of recombinant MAO-B (unknown origin) using luciferin substrate at 10 uM preincubated for 15 mins followed by substrate addition measured after 1 hr by luciferase based assay relative to control; details: probe luciferin substrate, time 75 min
T2 sequence (P27338 whole entry): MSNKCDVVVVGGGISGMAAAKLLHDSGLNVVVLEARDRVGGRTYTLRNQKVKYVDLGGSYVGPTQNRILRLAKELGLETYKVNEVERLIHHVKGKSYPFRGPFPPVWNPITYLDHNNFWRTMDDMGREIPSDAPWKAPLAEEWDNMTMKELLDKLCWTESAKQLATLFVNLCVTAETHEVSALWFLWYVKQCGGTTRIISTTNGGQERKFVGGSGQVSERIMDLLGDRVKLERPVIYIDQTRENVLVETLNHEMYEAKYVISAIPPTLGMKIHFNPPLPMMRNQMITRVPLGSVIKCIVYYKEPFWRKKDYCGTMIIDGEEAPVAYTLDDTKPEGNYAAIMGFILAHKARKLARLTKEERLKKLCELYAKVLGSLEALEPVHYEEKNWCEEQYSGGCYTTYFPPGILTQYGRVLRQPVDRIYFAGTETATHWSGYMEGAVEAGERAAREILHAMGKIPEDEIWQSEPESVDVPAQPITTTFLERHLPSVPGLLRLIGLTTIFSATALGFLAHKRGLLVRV

[3] = molecular target: T3, Lysine-specific demethylase 4A (Homo sapiens, UniProt O75164); experiment: Inhibition of recombinant human KDM4A incubated for 30 mins by fluorescence based assay
T3 sequence (O75164 whole entry): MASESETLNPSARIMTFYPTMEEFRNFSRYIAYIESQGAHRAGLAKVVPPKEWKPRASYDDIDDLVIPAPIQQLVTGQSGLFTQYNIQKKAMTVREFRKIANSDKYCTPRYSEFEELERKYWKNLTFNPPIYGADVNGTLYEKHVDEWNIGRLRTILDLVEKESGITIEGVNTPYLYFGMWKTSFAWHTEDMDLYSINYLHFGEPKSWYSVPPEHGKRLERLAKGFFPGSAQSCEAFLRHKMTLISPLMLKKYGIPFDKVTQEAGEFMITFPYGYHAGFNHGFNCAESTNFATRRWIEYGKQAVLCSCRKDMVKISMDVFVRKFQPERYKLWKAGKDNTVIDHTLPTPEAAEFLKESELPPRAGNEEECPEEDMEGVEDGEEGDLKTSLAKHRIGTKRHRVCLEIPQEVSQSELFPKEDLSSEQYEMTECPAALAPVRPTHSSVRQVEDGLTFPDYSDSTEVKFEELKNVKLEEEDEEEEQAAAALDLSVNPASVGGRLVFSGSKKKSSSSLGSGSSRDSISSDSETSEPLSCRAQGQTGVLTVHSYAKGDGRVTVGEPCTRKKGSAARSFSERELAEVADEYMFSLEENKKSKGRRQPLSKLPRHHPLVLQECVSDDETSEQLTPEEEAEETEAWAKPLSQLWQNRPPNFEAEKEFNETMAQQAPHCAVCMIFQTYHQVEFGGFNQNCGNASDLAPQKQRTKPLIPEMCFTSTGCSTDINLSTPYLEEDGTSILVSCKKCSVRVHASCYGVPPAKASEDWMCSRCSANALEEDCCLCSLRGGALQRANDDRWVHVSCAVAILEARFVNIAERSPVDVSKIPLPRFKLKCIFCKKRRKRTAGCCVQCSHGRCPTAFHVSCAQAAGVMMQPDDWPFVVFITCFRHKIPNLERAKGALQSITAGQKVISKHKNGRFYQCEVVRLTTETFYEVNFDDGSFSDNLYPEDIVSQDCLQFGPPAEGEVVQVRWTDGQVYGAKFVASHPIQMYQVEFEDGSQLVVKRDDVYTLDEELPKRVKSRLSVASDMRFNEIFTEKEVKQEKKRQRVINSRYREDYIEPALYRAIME

[4] = molecular target: T1, MAO-A; experiment: Inhibition of recombinant MAO-A (unknown origin) using luciferin substrate at 100 uM preincubated for 15 mins followed by substrate addition measured after 1 hr by luciferase based assay relative to control; details: probe luciferin substrate, time 75 min
[5] = molecular target: T2, MAO-B; experiment: Inhibition of recombinant MAO-B (unknown origin) using luciferin substrate at 100 uM preincubated for 15 mins followed by substrate addition measured after 1 hr by luciferase based assay relative to control; details: probe luciferin substrate, time 75 min
[6] = molecular target: T1, MAO-A; experiment: Inhibition of MAO-A (unknown origin) at 100 uM relative to control
[7] = molecular target: T2, MAO-B; experiment: Inhibition of MAO-B (unknown origin) at 100 uM relative to control
[8] = molecular target: T4, Lysine-specific histone demethylase 1A (Homo sapiens, UniProt O60341)
[9] = molecular target: Lysine-specific demethylase 6B (Homo sapiens, UniProt O15054); experiment: Binding affinity to KDM6B (unknown origin) assessed as inhibition constant
[10] = molecular target: Lysine-specific demethylase 4A (Homo sapiens) (UniProt O75164); experiment: Inhibition of recombinant KDM4A (unknown origin) assessed as residual activity using H3K9me3 peptide as substrate incubated for 60 mins by fluorescence based assay relative to control
[11] = molecular target: T1, MAO-A; experiment: Inhibition of recombinant MAO-A (unknown origin) at 10 uM by luminometry relative to control
[12] = molecular target: T2, MAO-B; experiment: Inhibition of recombinant MAO-B (unknown origin) at 10 uM by luminometry relative to control
[13] = molecular target: T4, Lysine-specific histone demethylase 1A; experiment: Inhibition of KDM1A (unknown origin) by fluorescence based assay
[14] = molecular target: Probable JmjC domain-containing histone demethylation protein 2C (Homo sapiens, UniProt Q15652); experiment: Binding affinity to CM7 sensor chip immobilized partial-length JMJD1C (2274 to 2498 residues) (unknown origin) expressed in Escherichia coli assessed as dissociation constant incubated for 60 secs by SPR analysis
Chain of Probable JmjC domain-containing histone demethylation protein 2C (Q15652 whole entry, the tested form may be a part): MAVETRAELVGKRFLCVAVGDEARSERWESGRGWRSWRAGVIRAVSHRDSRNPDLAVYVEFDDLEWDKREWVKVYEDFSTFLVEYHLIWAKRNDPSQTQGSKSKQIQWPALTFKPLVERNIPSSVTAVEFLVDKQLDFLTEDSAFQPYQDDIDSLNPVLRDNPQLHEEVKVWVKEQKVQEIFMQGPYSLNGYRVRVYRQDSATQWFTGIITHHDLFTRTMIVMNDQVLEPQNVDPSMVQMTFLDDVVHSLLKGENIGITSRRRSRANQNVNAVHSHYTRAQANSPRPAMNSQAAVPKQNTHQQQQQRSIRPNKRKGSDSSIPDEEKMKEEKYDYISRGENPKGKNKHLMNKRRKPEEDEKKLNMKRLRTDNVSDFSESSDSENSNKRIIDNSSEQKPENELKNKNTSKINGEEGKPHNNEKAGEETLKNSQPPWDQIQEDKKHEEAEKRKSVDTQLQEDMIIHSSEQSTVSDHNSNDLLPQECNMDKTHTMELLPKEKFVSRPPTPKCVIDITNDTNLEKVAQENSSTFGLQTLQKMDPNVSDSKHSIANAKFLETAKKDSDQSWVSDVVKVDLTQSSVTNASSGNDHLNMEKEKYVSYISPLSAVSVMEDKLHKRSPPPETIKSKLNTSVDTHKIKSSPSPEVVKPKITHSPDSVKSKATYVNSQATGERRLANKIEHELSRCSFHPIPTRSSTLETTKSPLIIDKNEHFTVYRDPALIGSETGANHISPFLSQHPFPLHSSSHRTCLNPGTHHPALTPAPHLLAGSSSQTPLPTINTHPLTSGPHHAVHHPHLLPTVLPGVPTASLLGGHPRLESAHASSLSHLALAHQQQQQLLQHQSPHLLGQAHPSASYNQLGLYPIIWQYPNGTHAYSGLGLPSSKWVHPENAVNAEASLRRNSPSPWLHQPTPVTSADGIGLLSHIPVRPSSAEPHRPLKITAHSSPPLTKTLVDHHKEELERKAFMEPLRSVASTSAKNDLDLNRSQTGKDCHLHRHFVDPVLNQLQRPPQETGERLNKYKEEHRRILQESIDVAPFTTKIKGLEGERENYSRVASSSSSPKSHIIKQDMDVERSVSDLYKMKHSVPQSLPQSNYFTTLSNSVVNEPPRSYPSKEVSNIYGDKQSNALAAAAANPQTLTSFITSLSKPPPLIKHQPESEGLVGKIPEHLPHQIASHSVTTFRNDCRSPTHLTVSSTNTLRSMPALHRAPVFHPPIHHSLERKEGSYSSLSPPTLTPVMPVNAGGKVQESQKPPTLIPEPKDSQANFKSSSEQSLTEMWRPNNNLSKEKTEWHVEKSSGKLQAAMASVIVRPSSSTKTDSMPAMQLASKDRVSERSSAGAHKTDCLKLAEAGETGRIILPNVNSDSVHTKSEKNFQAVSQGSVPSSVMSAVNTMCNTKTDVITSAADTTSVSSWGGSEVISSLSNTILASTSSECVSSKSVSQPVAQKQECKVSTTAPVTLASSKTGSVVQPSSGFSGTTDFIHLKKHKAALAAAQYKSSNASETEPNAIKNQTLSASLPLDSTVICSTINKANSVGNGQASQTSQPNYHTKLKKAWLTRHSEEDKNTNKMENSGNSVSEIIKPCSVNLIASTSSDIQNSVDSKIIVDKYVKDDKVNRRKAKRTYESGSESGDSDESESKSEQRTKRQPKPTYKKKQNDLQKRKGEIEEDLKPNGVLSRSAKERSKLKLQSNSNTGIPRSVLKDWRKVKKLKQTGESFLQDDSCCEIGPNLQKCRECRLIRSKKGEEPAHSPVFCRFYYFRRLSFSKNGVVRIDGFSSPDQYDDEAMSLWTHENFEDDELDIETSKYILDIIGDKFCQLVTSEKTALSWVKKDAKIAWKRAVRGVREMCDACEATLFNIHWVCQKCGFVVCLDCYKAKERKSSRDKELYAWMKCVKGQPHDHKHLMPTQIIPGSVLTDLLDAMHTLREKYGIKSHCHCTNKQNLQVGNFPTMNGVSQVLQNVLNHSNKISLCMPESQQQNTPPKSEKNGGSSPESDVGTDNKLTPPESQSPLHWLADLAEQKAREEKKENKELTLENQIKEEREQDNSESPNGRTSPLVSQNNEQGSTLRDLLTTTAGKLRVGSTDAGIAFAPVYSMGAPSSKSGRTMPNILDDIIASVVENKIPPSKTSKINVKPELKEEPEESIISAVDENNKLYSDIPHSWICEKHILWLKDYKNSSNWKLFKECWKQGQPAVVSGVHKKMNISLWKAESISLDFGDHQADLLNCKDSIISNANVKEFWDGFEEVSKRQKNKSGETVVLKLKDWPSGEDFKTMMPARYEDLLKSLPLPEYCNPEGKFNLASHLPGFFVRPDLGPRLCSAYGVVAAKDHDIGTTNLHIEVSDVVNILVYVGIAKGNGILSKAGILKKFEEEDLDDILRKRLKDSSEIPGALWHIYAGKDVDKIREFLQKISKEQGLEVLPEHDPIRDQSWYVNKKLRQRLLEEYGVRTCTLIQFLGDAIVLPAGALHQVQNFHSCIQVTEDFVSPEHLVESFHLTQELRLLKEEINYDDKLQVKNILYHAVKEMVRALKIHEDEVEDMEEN

[15] = molecular target: Lysine-specific demethylase 3B (Homo sapiens, UniProt Q7LBC6); experiment: Binding affinity to CM7 sensor chip immobilized full-length KDM3B (unknown origin) expressed in Sf9 insect cells assessed as dissociation constant incubated for 60 secs by SPR analysis
Chain of Lysine-specific demethylase 3B (Q7LBC6 whole entry, the tested form may be a part): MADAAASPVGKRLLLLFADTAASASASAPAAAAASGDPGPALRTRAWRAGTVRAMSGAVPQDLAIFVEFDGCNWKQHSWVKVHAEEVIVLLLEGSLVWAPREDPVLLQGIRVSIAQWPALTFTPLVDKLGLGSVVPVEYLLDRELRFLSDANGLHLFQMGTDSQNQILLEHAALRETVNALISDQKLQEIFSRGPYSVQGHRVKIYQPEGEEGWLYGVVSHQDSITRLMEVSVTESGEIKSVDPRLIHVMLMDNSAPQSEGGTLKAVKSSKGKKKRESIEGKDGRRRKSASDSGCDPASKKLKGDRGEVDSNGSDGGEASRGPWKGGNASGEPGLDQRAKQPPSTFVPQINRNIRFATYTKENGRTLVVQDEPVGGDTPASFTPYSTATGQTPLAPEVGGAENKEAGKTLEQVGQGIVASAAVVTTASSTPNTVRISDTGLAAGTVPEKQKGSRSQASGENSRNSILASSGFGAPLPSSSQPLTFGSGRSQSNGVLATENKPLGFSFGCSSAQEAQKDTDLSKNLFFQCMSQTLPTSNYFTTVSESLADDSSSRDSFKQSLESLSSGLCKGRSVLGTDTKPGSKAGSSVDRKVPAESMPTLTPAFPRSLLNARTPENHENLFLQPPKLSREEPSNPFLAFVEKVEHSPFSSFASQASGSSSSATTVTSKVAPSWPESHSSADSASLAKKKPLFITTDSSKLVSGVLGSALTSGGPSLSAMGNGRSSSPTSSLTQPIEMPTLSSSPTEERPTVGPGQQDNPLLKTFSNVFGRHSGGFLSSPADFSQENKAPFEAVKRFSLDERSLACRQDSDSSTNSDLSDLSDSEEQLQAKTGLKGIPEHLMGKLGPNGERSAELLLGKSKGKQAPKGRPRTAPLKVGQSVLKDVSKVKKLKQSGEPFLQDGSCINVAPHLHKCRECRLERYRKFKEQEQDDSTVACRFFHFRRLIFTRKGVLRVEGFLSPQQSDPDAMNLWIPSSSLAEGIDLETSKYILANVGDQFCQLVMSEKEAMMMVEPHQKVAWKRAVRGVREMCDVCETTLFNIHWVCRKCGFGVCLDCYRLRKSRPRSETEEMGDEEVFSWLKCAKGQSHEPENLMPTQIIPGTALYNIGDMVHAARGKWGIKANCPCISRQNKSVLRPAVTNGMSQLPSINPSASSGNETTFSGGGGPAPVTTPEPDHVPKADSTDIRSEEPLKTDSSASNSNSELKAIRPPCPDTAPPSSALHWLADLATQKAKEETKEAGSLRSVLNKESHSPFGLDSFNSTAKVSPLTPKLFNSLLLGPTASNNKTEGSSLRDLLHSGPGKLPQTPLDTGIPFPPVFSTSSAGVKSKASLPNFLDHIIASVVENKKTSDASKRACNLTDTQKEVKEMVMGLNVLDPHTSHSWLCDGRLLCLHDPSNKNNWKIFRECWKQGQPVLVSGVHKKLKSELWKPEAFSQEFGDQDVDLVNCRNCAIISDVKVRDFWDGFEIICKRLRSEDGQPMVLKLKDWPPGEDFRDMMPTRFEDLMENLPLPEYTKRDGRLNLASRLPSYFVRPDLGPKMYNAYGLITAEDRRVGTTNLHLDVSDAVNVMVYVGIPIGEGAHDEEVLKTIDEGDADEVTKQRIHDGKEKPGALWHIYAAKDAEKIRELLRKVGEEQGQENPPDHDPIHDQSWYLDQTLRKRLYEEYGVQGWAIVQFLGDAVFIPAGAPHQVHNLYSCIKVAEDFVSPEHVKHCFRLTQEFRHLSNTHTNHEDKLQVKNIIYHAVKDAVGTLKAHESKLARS

[16] = molecular target: T4, Lysine-specific histone demethylase 1A; experiment: Inhibition of recombinant human KDM1A (158 to 852 residues) using H3K4Me2 peptide as substrate preincubated for 15 mins followed by substrate addition measured after 60 mins by AlphaLISA assay
[17] = molecular target: T4, Lysine-specific histone demethylase 1A; experiment: Inhibition of recombinant human KDM1A using fluorogenic substrate incubated for 30 mins followed by substrate addition measured after 10 mins by fluorescence based assay

inhibition at 1 h, 10 µM [1]: < 15%
inhibition at 1 h, 10 µM [2]: < 15%
Structure (SMILES): Oc1ccc(CC2NCCc3cc(O)c(O)cc32)cc1 (centres undefined) [HIGENAMINE]

IC50 [8]: 3.9 nM
Structure (SMILES): CCCC(=O)NC(c1ccc(N(CC)CC)cc1)c1cc(Cl)c2cccnc2c1O (centres undefined)

inhibition at 10 µM [11]: 70%
inhibition at 10 µM [12]: 40%
Structure (SMILES): COc1cc2c(cc1OC)-c1cc3ccc4c(c3c[n+]1CC2)OCO4

IC50 [13]: 2440 nM
Structure (SMILES): COc1cc2c(cc1OC)-c1c(C)c3ccc(OC)c(OC)c3c[n+]1CC2 [DEHYDROCORYDALINE]

IC50 [13]: 110 nM
Structure (SMILES): O=C(/C=C/c1ccc(O)c2c1[C@H](C(=O)OC(Cc1ccc(O)c(O)c1)C(=O)O)[C@@H](c1ccc(O)c(O)c1)O2)O[C@H](Cc1ccc(O)c(O)c1)C(=O)O (some centres undefined)

The remaining lines, values behind:

Structure (SMILES): O=C(O)c1cc(O)c(=O)c2c(O)c(O)cc(-c3ccccc3)c2c1
IC50 [3]: 24400 nM

Structure (SMILES): Cc1ccc(-c2nc(SCc3cn(CC(=O)NC(=O)Nc4ccccn4)nn3)nc(Nc3cccc(C(F)(F)F)c3)c2C#N)cc1
inhibition at 1 h, 100 µM [4]: < 5%
inhibition at 1 h, 100 µM [5]: < 5%

Structure (SMILES): NC1CC1c1ccc(NC(=O)c2ccc(-c3ccccc3)cc2)cc1 (centres undefined)
inhibition at 100 µM [6]: 2%
inhibition at 100 µM [7]: 8%
IC50 [8]: 51 nM

Structure (SMILES): O=C(O)[C@H](O)Cc1ccc(O)c(O)c1
Ki [9]: 7110 nM

Structure (SMILES): CC(C)(C)OC(=O)NCc1cc2ccccc2[te]1
Activity [10]: 1.79%

Structure (SMILES): CC(=O)Nc1ccc(S(=O)(=O)N[C@H]2CO[C@H]3[C@@H]2OC[C@@H]3Nc2nccc(-c3ccccc3)n2)cc1
Kd [14]: 2700 nM
Kd [15]: 130 nM

Structure (SMILES): COCc1cccc(NC(=O)c2cc3ccccc3n2C)c1COc1ccc(OCC2CCNCC2)cc1
IC50 [16]: 4000 nM

Structure (SMILES): Cn1c(C(=O)Nc2cccc3c2N(Cc2ccc(OC4CCNCC4)cc2)CCC3)cc2ccccc21
IC50 [17]: 50 nM
